Tests used:
[1] = biological target: T1, recombinant, human liver GO (the HAO1 gene product) (Homo sapiens, UniProt Q9UJM8); assay: GO inhibition, coupled DCIP assay; format: biochemical; conditions: 37° C., 100 mM potassium phosphate pH 7.5, 75 μM DCIP, 3 mM glycolate; read-out: apparent Ki
T1 sequence (Q9UJM8 1-370): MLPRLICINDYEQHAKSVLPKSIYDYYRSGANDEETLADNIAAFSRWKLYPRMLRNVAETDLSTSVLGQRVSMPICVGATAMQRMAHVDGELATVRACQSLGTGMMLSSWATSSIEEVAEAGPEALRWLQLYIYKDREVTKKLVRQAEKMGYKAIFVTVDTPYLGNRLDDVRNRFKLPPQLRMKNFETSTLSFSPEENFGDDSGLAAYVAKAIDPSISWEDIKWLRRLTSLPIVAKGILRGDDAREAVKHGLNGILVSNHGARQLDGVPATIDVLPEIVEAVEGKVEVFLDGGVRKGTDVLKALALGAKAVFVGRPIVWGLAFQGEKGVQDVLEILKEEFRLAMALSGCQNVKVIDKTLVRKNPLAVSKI
Experimental: Testing of GO inhibitors. The inhibition of recombinant, human liver GO (the HAO1 gene product) is readily determined by a coupled assay that contains 2,6-dichloroindophenol (DCIP) (Murray et al. Biochemistry 47, 2439-2449, 2008). Briefly, GO is pre-incubated at 37° C. with or without inhibitor in 100 mM potassium phosphate pH 7.5 (0.1% DMSO final) for […]. An aliquot of pre-warmed DCIP and glycolate is added to start the reaction (final concentration 75 μM DCIP, 3 mM glycolate). The reaction rate is determined by monitoring the decrease at 600 nm (extinction coefficient of 21 mM^−1 cm^−1).

[2] = biological target: T2, human HYPDH (Homo sapiens, UniProt Q9UF12); assay: Anaerobic titration of the FAD spectrum of HYPDH; format: binding
T2 construct: Only the constructs containing the residues 147-515 and 156-515 were >96% loaded with FAD+ and active; made in house; host or cells: Escherichia coli
T2 sequence (Q9UF12 71-439 limits assumed): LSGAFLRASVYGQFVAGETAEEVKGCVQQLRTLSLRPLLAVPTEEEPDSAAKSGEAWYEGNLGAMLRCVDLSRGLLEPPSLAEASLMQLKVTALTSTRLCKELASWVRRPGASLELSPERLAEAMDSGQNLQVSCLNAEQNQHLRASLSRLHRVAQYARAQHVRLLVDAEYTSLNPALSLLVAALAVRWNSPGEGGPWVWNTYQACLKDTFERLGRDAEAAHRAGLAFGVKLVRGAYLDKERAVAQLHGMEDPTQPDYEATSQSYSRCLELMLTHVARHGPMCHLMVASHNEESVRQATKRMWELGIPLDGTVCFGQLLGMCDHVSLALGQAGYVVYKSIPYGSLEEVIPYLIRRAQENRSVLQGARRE

`CCCCCCCCCCCCSc1snnc1C(=O)O` [CDST] gave a Ki [1] of roughly 0.015 µM.

`O=C(O)[C@@H]1C[C@@H](O)CN1` [Hyp, Hydroxyproline] was tested, and the Kd [2] was 125 µM.
